Assay results: ChEMBL document CHEMBL4507283, “Data for DCP probe BI-1935” (2021)

What was measured:
[1] = biological target: Prostaglandin G/H synthase 2 (Homo sapiens) (UniProt P35354); assay: COX-2 Eurofins-Panlabs selectivity data (BI); conditions: Compound concentration 10.0 uM
[2] = tested on: eIF-2-alpha kinase GCN2 (Homo sapiens), Q9P2K8 [S808G]; conditions: Compound concentration 1000.0 nM
[3] = biological target: Aurora kinase C (Homo sapiens) (UniProt Q9UQB9); conditions: Compound concentration 1000.0 nM
[4] = tested on: Serine/threonine-protein kinase B-raf (Homo sapiens), P15056 [V600E]; conditions: Compound concentration 1000.0 nM
[5] = biological target: Ribosomal protein S6 kinase alpha-4 (Homo sapiens) (UniProt O75676); conditions: Compound concentration 1000.0 nM
[6] = biological target: Ribosomal protein S6 kinase alpha-2 (Homo sapiens) (UniProt Q15349); conditions: Compound concentration 1000.0 nM
[7] = biological target: Ribosomal protein S6 kinase alpha-6 (Homo sapiens) (UniProt Q9UK32); conditions: Compound concentration 1000.0 nM
[8] = biological target: Epidermal growth factor receptor (Homo sapiens) (UniProt P00533); conditions: Compound concentration 1000.0 nM
[9] = tested on: Tyrosine-protein kinase ABL1 (Homo sapiens), P00519 [Y253F]; conditions: Compound concentration 1000.0 nM
[10] = biological target: Dual specificity mitogen-activated protein kinase kinase 6 (Homo sapiens) (UniProt P52564); conditions: Compound concentration 1000.0 nM
[11] = biological target: Protein kinase C delta type (Homo sapiens) (UniProt Q05655); conditions: Compound concentration 1000.0 nM
[12] = biological target: Serine/threonine-protein kinase PLK1 (Homo sapiens) (UniProt P53350); conditions: Compound concentration 1000.0 nM
[13] = biological target: Mitogen-activated protein kinase 1 (Homo sapiens) (UniProt P28482); conditions: Compound concentration 1000.0 nM
[14] = biological target: Serine/threonine-protein kinase VRK2 (Homo sapiens) (UniProt Q86Y07); conditions: Compound concentration 1000.0 nM
[15] = biological target: Serine/threonine-protein kinase 24 (Homo sapiens) (UniProt Q9Y6E0); conditions: Compound concentration 1000.0 nM
[16] = biological target: Polyunsaturated fatty acid lipoxygenase ALOX15 (Oryctolagus cuniculus) (UniProt P12530); assay: 15LO Eurofins-Panlabs selectivity data (BI); conditions: Compound concentration 10.0 uM
[17] = tested on: Epidermal growth factor receptor (Homo sapiens), P00533 [UNDEFINED MUTATION]; conditions: Compound concentration 1000.0 nM
[18] = biological target: Homeodomain-interacting protein kinase 2 (Homo sapiens) (UniProt Q9H2X6); conditions: Compound concentration 1000.0 nM
[19] = biological target: Tyrosine-protein kinase Fgr (Homo sapiens) (UniProt P09769); conditions: Compound concentration 1000.0 nM
[20] = biological target: Citron Rho-interacting kinase (Homo sapiens) (UniProt O14578); conditions: Compound concentration 1000.0 nM
[21] = biological target: Serine/threonine-protein kinase 32A (Homo sapiens) (UniProt Q8WU08); conditions: Compound concentration 1000.0 nM
[22] = tested on: Epidermal growth factor receptor (Homo sapiens), P00533 [L861Q]; conditions: Compound concentration 1000.0 nM
[23] = biological target: Protein kinase C iota type (Homo sapiens) (UniProt P41743); conditions: Compound concentration 1000.0 nM
[24] = biological target: Histamine H4 receptor (Homo sapiens) (UniProt Q9H3N8); conditions: Compound concentration 10.0 uM
[25] = biological target: Fibroblast growth factor receptor 4 (Homo sapiens) (UniProt P22455); conditions: Compound concentration 1000.0 nM
[26] = biological target: Leukotriene A-4 hydrolase (Cavia porcellus) (UniProt P19602); assay: LTA4HYD Eurofins-Panlabs selectivity data (BI); conditions: Compound concentration 10.0 uM
[27] = biological target: Serine/threonine-protein kinase LATS2 (Homo sapiens) (UniProt Q9NRM7); conditions: Compound concentration 1000.0 nM
[28] = biological target: Tyrosine-protein kinase ITK/TSK (Homo sapiens) (UniProt Q08881); conditions: Compound concentration 1000.0 nM
[29] = biological target: Ephrin type-B receptor 1 (Homo sapiens) (UniProt P54762); conditions: Compound concentration 1000.0 nM
[30] = biological target: Inhibitor of nuclear factor kappa-B kinase subunit epsilon (Homo sapiens) (UniProt Q14164); conditions: Compound concentration 1000.0 nM
[31] = biological target: 5-hydroxytryptamine receptor 1B (Homo sapiens) (UniProt P28222); conditions: Compound concentration 10.0 uM
[32] = biological target: Dual specificity protein kinase CLK3 (Homo sapiens) (UniProt P49761); conditions: Compound concentration 1000.0 nM
[33] = biological target: Dual specificity mitogen-activated protein kinase kinase 1 (Homo sapiens) (UniProt Q02750); conditions: Compound concentration 1000.0 nM
[34] = biological target: Sodium-dependent noradrenaline transporter (Homo sapiens) (UniProt P23975); assay: NETRANS/H Eurofins-Panlabs selectivity data (BI); conditions: Compound concentration 10.0 uM
[35] = biological target: Activin receptor type-1-like (Homo sapiens) (UniProt P37023); conditions: Compound concentration 1000.0 nM
[36] = biological target: Serine/threonine-protein kinase NLK (Homo sapiens) (UniProt Q9UBE8); conditions: Compound concentration 1000.0 nM
[37] = biological target: Misshapen-like kinase 1 (Homo sapiens) (UniProt Q8N4C8); conditions: Compound concentration 1000.0 nM
[38] = biological target: Tyrosine-protein kinase Fes/Fps (Homo sapiens) (UniProt P07332); conditions: Compound concentration 1000.0 nM
[39] = biological target: Histamine H1 receptor (Homo sapiens) (UniProt P35367); conditions: Compound concentration 10.0 uM
[40] = biological target: Serine/threonine-protein kinase SBK1 (Homo sapiens) (UniProt Q52WX2); conditions: Compound concentration 1000.0 nM
[41] = biological target: Alpha-1A adrenergic receptor (Homo sapiens) (UniProt P35348); conditions: Compound concentration 10.0 uM
[42] = biological target: Phosphatidylinositol 4-phosphate 5-kinase type-1 alpha (Homo sapiens) (UniProt Q99755); conditions: Compound concentration 1000.0 nM
[43] = tested on: Proto-oncogene tyrosine-protein kinase receptor Ret (Homo sapiens), P07949 [V804M]; conditions: Compound concentration 1000.0 nM
[44] = biological target: Serine/threonine-protein kinase ICK (Homo sapiens) (UniProt Q9UPZ9); conditions: Compound concentration 1000.0 nM
[45] = tested on: Receptor-type tyrosine-protein kinase FLT3 (Homo sapiens), P36888 [UNDEFINED MUTATION]; conditions: Compound concentration 1000.0 nM

Serine/threonine-protein kinase VRK2 (Homo sapiens), sequence (Q86Y07 whole entry): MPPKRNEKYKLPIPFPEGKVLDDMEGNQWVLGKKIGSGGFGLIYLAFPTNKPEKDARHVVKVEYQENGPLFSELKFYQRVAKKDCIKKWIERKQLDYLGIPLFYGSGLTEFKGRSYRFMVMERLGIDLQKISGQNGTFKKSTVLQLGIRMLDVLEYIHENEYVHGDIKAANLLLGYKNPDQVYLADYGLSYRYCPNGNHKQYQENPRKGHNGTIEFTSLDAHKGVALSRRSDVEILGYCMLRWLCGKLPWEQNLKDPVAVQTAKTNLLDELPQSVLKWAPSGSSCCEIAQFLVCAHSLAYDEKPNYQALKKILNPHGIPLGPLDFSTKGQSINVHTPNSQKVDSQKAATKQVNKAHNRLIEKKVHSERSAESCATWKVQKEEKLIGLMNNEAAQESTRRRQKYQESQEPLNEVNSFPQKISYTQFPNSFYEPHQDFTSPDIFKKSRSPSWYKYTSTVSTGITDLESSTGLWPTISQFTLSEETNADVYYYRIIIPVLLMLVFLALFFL
Homeodomain-interacting protein kinase 2 (Homo sapiens), sequence (Q9H2X6 whole entry, looked up): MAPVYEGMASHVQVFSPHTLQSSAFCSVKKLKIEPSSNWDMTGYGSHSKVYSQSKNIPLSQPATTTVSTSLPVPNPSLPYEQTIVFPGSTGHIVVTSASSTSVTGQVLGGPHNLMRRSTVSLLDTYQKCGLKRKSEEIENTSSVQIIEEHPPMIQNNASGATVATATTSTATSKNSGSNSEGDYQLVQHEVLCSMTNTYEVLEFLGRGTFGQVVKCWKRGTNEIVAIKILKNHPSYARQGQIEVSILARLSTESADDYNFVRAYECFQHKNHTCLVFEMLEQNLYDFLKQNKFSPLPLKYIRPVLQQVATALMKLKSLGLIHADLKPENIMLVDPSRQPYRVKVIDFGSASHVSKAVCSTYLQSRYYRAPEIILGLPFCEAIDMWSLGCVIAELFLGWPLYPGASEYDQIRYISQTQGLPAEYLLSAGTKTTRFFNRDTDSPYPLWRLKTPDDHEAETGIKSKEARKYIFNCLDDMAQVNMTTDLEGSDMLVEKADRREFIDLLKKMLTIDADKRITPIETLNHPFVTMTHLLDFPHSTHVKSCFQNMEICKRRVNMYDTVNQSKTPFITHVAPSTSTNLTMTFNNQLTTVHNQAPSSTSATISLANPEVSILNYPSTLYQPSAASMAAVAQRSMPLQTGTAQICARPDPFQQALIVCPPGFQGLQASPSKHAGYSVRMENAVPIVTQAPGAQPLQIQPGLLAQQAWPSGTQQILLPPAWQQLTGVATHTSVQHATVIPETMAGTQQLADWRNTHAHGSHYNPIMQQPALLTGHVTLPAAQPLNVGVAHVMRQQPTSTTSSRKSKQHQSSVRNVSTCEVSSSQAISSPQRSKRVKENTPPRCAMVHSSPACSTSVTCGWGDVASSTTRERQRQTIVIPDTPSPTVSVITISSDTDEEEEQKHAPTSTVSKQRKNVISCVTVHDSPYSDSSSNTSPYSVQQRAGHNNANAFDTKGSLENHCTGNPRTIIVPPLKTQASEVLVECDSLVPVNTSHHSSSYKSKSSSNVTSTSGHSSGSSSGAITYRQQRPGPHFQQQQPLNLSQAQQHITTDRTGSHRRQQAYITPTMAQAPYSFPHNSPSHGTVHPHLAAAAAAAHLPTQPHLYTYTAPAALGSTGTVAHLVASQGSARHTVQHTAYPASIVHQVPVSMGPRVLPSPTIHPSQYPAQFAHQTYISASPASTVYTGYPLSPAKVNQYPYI
Leukotriene A-4 hydrolase (Cavia porcellus), sequence (P19602 whole entry): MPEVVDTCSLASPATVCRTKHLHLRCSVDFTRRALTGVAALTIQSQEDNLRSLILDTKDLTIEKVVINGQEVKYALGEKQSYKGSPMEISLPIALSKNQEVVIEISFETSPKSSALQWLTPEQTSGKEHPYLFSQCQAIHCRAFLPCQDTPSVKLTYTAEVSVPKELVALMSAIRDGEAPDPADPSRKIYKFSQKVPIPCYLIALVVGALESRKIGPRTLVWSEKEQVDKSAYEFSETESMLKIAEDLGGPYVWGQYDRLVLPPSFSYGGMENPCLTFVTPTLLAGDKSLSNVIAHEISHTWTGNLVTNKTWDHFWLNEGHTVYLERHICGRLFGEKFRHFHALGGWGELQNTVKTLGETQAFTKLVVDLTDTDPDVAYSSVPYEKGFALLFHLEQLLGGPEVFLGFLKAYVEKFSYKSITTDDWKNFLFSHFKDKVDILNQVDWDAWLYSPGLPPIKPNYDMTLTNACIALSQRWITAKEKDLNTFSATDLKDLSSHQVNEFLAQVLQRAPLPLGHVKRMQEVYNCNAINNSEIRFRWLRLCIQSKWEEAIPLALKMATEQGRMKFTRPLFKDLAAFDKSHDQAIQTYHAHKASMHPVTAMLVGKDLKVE
Prostaglandin G/H synthase 2 (Homo sapiens), sequence (P35354 whole entry): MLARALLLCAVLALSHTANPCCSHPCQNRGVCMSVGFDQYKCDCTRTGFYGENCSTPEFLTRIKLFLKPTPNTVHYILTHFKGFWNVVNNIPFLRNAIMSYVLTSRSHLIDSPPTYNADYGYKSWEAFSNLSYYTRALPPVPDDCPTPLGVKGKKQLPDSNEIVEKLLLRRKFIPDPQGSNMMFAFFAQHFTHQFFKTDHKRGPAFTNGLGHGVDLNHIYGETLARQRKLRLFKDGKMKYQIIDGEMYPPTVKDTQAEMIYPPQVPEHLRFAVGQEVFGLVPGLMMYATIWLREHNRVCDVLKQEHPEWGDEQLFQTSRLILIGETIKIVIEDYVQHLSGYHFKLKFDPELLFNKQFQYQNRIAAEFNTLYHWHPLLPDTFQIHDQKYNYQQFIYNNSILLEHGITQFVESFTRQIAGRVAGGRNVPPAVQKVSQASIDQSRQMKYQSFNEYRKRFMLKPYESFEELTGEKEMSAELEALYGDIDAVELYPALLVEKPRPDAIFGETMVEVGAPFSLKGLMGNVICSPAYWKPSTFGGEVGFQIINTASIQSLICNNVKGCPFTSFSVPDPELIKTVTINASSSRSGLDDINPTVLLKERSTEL
Tyrosine-protein kinase ITK/TSK (Homo sapiens), sequence (Q08881 whole entry): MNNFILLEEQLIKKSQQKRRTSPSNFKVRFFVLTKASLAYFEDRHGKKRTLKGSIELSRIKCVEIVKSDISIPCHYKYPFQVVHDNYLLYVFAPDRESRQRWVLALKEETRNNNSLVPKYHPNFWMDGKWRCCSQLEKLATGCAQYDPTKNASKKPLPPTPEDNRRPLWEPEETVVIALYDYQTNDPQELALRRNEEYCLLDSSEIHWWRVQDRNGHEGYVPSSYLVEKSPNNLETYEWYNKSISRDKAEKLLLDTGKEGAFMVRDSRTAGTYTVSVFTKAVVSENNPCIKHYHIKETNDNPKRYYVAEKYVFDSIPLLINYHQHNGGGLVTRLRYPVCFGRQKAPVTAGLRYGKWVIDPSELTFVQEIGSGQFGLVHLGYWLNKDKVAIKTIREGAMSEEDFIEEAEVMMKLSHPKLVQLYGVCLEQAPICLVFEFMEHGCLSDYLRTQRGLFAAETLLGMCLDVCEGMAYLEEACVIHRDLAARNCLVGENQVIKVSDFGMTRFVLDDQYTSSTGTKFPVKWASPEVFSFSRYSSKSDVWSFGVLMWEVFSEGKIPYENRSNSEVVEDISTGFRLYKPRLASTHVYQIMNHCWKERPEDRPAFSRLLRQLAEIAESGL
Dual specificity mitogen-activated protein kinase kinase 6 (Homo sapiens), sequence (P52564 whole entry): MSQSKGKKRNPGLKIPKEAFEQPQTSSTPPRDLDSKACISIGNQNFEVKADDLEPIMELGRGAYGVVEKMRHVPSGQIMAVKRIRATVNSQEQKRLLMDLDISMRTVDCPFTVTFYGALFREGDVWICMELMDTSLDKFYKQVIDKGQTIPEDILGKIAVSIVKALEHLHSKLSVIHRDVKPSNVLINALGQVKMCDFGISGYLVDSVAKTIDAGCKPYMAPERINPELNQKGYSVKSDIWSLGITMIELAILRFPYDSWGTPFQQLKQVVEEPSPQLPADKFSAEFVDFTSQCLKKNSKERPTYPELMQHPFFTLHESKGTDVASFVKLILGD
Proto-oncogene tyrosine-protein kinase receptor Ret (Homo sapiens), P07949 [V804M], sequence (P07949 whole entry V804M): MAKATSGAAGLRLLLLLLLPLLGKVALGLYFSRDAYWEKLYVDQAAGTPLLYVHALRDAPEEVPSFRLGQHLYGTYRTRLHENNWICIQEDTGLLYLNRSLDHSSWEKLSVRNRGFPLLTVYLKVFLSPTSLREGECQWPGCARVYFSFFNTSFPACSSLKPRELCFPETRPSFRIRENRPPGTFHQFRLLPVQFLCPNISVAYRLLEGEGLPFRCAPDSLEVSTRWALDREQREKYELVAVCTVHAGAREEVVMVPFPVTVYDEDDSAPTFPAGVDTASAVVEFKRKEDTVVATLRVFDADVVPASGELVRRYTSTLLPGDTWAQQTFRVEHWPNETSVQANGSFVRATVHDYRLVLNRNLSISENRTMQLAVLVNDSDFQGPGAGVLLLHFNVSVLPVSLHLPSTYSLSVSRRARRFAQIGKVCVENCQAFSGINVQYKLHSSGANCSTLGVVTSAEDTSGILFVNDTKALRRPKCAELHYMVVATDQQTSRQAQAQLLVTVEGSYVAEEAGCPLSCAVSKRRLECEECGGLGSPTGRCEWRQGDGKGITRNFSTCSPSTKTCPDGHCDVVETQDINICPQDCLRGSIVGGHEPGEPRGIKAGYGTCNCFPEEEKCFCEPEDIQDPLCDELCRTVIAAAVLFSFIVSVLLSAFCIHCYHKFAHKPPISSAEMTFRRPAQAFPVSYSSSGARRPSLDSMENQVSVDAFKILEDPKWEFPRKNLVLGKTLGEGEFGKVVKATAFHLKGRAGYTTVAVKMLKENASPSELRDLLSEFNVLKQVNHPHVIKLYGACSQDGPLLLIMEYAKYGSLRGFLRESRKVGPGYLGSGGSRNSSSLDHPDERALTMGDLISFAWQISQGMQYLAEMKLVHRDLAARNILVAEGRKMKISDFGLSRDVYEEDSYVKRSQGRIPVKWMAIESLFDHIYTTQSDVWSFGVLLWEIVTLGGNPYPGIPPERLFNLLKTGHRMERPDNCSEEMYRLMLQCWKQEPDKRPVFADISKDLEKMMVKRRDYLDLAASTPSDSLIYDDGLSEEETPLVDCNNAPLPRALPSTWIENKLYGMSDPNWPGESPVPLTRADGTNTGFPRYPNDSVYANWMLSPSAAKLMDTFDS

CCOCCn1cc(C(=O)Nc2ccc(-n3nc(-c4cccnc4)cc3C(F)(F)F)cn2)ccc1=O [BI 1935]
residual activity [1]: 108% | residual activity [2]: 72% | residual activity [3]: 88% | residual activity [4]: 97% | residual activity [5]: 80% | residual activity [6]: 84% | residual activity [7]: 81% | residual activity [8]: 100% | residual activity [9]: 73% | residual activity [10]: 100% | residual activity [11]: 100% | residual activity [12]: 100% | residual activity [13]: 100% | residual activity [14]: 97% | residual activity [15]: 100% | residual activity [16]: 92% | residual activity [17]: 96% | residual activity [18]: 100% | residual activity [19]: 100% | residual activity [20]: 97% | residual activity [21]: 96% | residual activity [22]: 100% | residual activity [23]: 73% | inhibition [24]: 48.6% | residual activity [25]: 100% | residual activity [26]: 111% | residual activity [27]: 65% | residual activity [28]: 83% | residual activity [29]: 100% | residual activity [30]: 79% | inhibition [31]: 18.8% | residual activity [32]: 100% | residual activity [33]: 86% | residual activity [34]: 97% | residual activity [35]: 100% | residual activity [36]: 47% | residual activity [37]: 89% | residual activity [38]: 82% | inhibition [39]: 12.2% | residual activity [40]: 91% | inhibition [41]: 29.3% | residual activity [42]: 100% | residual activity [43]: 100% | residual activity [44]: 99% | residual activity [45]: 86%
